Test results published in BindingDB's records for doi:10.1021/jm0609622 (Schering-Plough Research Institute, 2006).

Assay: Inhibition of CXCL1-induced human neutrophil chemotaxis

Row | Structure (SMILES) | IC50
1 | Cc1ccc([C@@H](C)Nc2c(Nc3cccc(C(=O)N(C)C)c3O)c(=O)c2=O)o1 [(R)-2-hydroxy-N,N-dimethyl-3-(2-(1-(5-methylfuran-2-yl)ethylamino)-3,4-dioxocyclobut-1-enylamino)benzamide] | 2.4 nM
2 | CC[C@@H](Nc1c(Nc2cccc(C(=O)N(C)C)c2O)c(=O)c1=O)c1ccccc1 [(R)-3-(3,4-dioxo-2-(1-phenylpropylamino)cyclobut-1-enylamino)-2-hydroxy-N,N-dimethylbenzamide] | 48 nM
